Experimental data: patent US4401660A, “Ester derivatives of 5-O-mycaminosyl tylonolide and method of using same” (Eli Lilly and Company, priority 1981, dated 1983)
Where two headings read alike, the source gives them in different places.

Columns and labels:
[1] = system: Haemophilus influenzae Holt; assay: MIC, standard agar-dilution assay (Table II); format: cell-based; parameters: unit not given here; conditions: ampicillin-sensitive strain
Method: (§1) The MIC's in Table II were determined by standard agar-dilution assays. The MIC's in Table III were obtained using a conventional broth-dilution microtiter test.

[2] = system: Haemophilus influenzae R252; assay: MIC, standard agar-dilution assay (Table II); format: cell-based; parameters: unit not given here; conditions: Haemophilus influenzae R252, ampicillin-resistant strain
Method: as §1

[3] = system: Staphylococcus aureus S13E; assay: MIC, standard agar-dilution assay (Table II); format: cell-based; parameters: unit not given here
Method: as §1

[4] = system: Staphylococcus aureus V41; assay: MIC, standard agar-dilution assay (Table II); format: cell-based; parameters: unit not given here; conditions: Staphylococcus aureus V41, penicillin-resistant strain
Method: as §1

[5] = system: Staphylococcus aureus X1.1; assay: MIC, standard agar-dilution assay (Table II); format: cell-based; parameters: unit not given here
Method: as §1

[6] = system: Staphylococcus aureus X400; assay: MIC, standard agar-dilution assay (Table II); format: cell-based; parameters: unit not given here; conditions: Staphylococcus aureus X400, methicillin-resistant strain
Method: as §1

[7] = system: Staphylococcus epidermidis EPI1; assay: MIC, standard agar-dilution assay (Table II); format: cell-based; parameters: unit not given here
Method: as §1

[8] = system: Staphylococcus epidermidis EPI2; assay: MIC, standard agar-dilution assay (Table II); format: cell-based; parameters: unit not given here
Method: as §1

[9] = system: Streptococcus Group D 9960; assay: MIC, standard agar-dilution assay (Table II); format: cell-based; parameters: unit not given here
Method: as §1

[10] = system: Streptococcus Group D X66; assay: MIC, standard agar-dilution assay (Table II); format: cell-based; parameters: unit not given here
Method: as §1

[11] = system: Streptococcus pneumoniae Park I; assay: MIC, standard agar-dilution assay (Table II); format: cell-based; parameters: unit not given here
Method: as §1

[12] = system: Streptococcus pyogenes C203; assay: MIC, standard agar-dilution assay (Table II); format: cell-based; parameters: unit not given here
Method: as §1

Mycoplasma gallisepticum = assay: MIC, broth-dilution microtiter test (Table III); format: cell-based; parameters: unit not given here
Method: as §1

Mycoplasma hyorhinis = assay: MIC, broth-dilution microtiter test (Table III); format: cell-based; parameters: unit not given here
Method: as §1

Mycoplasma synoviae = assay: MIC, broth-dilution microtiter test (Table III); format: cell-based; parameters: unit not given here
Method: as §1

[13] = system: Pasteurella haemolytica 22C; assay: MIC, broth-dilution microtiter test (Table III); format: cell-based; parameters: unit not given here
Method: as §1

[14] = system: Pasteurella haemolytica 23C; assay: MIC, broth-dilution microtiter test (Table III); format: cell-based; parameters: unit not given here
Method: as §1

[15] = system: Pasteurella haemolytica 41D; assay: MIC, broth-dilution microtiter test (Table III); format: cell-based; parameters: unit not given here
Method: as §1

[16] = system: Pasteurella multocida 17E; assay: MIC, broth-dilution microtiter test (Table III); format: cell-based; parameters: unit not given here; conditions: bovine isolate
Method: as §1

[17] = system: Pasteurella multocida 22A; assay: MIC, broth-dilution microtiter test (Table III); format: cell-based; parameters: unit not given here
Method: as §1

[18] = system: Pasteurella multocida 40G; assay: MIC, broth-dilution microtiter test (Table III); format: cell-based; parameters: unit not given here
Method: as §1

[19] = system: Pasteurella multocida 60A; assay: MIC, broth-dilution microtiter test (Table III); format: cell-based; parameters: unit not given here; conditions: avian isolate
Method: as §1

[20] = system: Pasteurella multocida 68C; assay: MIC, broth-dilution microtiter test (Table III); format: cell-based; parameters: unit not given here
Method: as §1

Staphylococcus aureus = assay: MIC, broth-dilution microtiter test (Table III); format: cell-based; parameters: unit not given here
Method: as §1

Streptococcus sp. 80 = assay: MIC, broth-dilution microtiter test (Table III); format: cell-based; parameters: unit not given here
Method: as §1

[21] = system: Streptococcus pyogenes C203; assay: ED50 in mice with experimental infections (Table IV); format: in vivo; conditions: Streptococcus pyogenes, doses given 1 and 4 hours postinfection
Method: The OMT ester derivatives of this invention have shown in vivo antimicrobial activity against experimental bacterial infections caused by gram-positive bacteria. When two doses of test compound were administered to mice with experimental infections, the activity observed was measured as an ED50 value [effective dose in mg/kg to protect 50% of the test animals: see Warren Wick, et al., J. Bacteriol. 81, 233-235 (1961)].
^a mg/kg × 2; doses given 1 and 4 hours postinfection

[22] = C203, oral, read-out: ED50, Oral
[23] = C203, sc, subcutaneous, read-out: ED50, Subcutaneous

Structure (SMILES) | minimal inhibitory concentration (MIC) [1] | minimal inhibitory concentration (MIC) [2] | minimal inhibitory concentration (MIC) [3] | minimal inhibitory concentration (MIC) [4] | minimal inhibitory concentration (MIC) [5] | minimal inhibitory concentration (MIC) [6] | minimal inhibitory concentration (MIC) [7] | minimal inhibitory concentration (MIC) [8] | minimal inhibitory concentration (MIC) [9] | minimal inhibitory concentration (MIC) [10] | minimal inhibitory concentration (MIC) [11] | minimal inhibitory concentration (MIC) [12] | minimal inhibitory concentration (MIC) (Mycoplasma gallisepticum) | minimal inhibitory concentration (MIC) (Mycoplasma hyorhinis) | minimal inhibitory concentration (MIC) (Mycoplasma synoviae) | minimal inhibitory concentration (MIC) [13] | minimal inhibitory concentration (MIC) [16] | minimal inhibitory concentration (MIC) [19] | minimal inhibitory concentration (MIC) (Staphylococcus aureus) | minimal inhibitory concentration (MIC) (Streptococcus sp. 80) | other results
CCC1OC(=O)CC(O)C(C)C(OC2OC(C)C(O)C(N(C)C)C2OC(=O)Cc2ccccc2)C(CC=O)CC(C)C(=O)C=CC(C)=CC1CO (stereo not drawn) [Compound 52, 2'-O-(Phenylacetyl)-OMT] | 2 | 0.5 | 1 | 1 | 0.5 | 2 | 0.5 | 2 | 1 | 0.5 | 0.06 | 0.25 | 3.12 | 3.12 | 1.56 | 25 | 3.12 | 1.56 | 1.56 | 0.78 | minimal inhibitory concentration (MIC) [14]: 12.5; minimal inhibitory concentration (MIC) [15]: 6.25; minimal inhibitory concentration (MIC) [17]: 3.12; minimal inhibitory concentration (MIC) [18]: 3.12; minimal inhibitory concentration (MIC) [20]: 6.25; ED50 [21, 22]: 92 mg/kg; ED50 [21, 23]: 2.1 mg/kg
CCC(=O)OC1C(OC2C(CC=O)CC(C)C(=O)C=CC(C)=CC(COC(C)=O)C(CC)OC(=O)CC(O)C2C)OC(C)C(O)C1N(C)C (stereo not drawn) [Compound 11] | 4 | 4 | 0.5 | 1 | 0.5 | 1 | 0.5 | 0.5 | 1 | 1 | 0.25 | 0.5 | 0.39 | 12.5 | 0.39 | – | 25 | 50 | 6.25 | 1.56 | ED50 [21, 22]: > 150 mg/kg; ED50 [21, 23]: 5.3 mg/kg
CCC(=O)OC1C(C)OC(OC2C(CC=O)CC(C)C(=O)C=CC(C)=CC(CO)C(CC)OC(=O)CC(O)C2C)C(OC(=O)CC)C1N(C)C (stereo not drawn) [Compound 4] | 4 | 4 | 2 | 4 | 2 | 2 | 1 | 4 | 2 | 1 | 8 | 0.5 | 0.39 | 1.56 | 0.78 | 6.25 | 3.12 | 3.12 | 1.56 | < 0.78 | minimal inhibitory concentration (MIC) [14]: 6.25; minimal inhibitory concentration (MIC) [15]: 12.5; minimal inhibitory concentration (MIC) [17]: 3.12; minimal inhibitory concentration (MIC) [18]: 6.25; minimal inhibitory concentration (MIC) [20]: 1.56; ED50 [21, 22]: 167 mg/kg; ED50 [21, 23]: 5.7 mg/kg
CCC1OC(=O)CC(O)C(C)C(OC2OC(C)C(O)C(N(C)C)C2O)C(CC=O)CC(C)C(=O)C=CC(C)=CC1COC(=O)c1ccc2ccccc2c1 (stereo not drawn) [Compound 59] | 4 | 2 | 0.5 | 0.5 | 0.5 | 0.5 | 0.5 | 0.5 | 0.5 | 0.5 | 0.125 | 0.5 | 0.39 | 6.25 | 1.56 | 12.5 | 3.12 | 3.12 | 0.78 | 0.39 | minimal inhibitory concentration (MIC) [14]: 12.5; minimal inhibitory concentration (MIC) [15]: 12.5; minimal inhibitory concentration (MIC) [17]: 12.5; minimal inhibitory concentration (MIC) [18]: 3.12; minimal inhibitory concentration (MIC) [20]: 3.12
CCC1OC(=O)CC(O)C(C)C(OC2OC(C)C(O)C(N(C)C)C2OC(C)=O)C(CC=O)CC(C)C(=O)C=CC(C)=CC1COC(=O)C12CC3CC(CC(C3)C1)C2 (stereo not drawn) [Compound 69] | 8 | 16 | 1 | 1 | 1 | 1 | 1 | 1 | 2 | 2 | 0.5 | 1 | 0.78 | 3.12 | 1.56 | 25 | 12.5 | 12.5 | 6.25 | 1.56 | minimal inhibitory concentration (MIC) [14]: 25; minimal inhibitory concentration (MIC) [15]: 25; minimal inhibitory concentration (MIC) [17]: 12.5; minimal inhibitory concentration (MIC) [18]: 12.5; minimal inhibitory concentration (MIC) [20]: 12.5
CCC1OC(=O)CC(O)C(C)C(OC2OC(C)C(O)C(N(C)C)C2OC(C)=O)C(CC=O)CC(C)C(=O)C=CC(C)=CC1COC(=O)CCCCc1ccccc1 (stereo not drawn) [Compound 60] | 2 | 2 | 0.25 | 0.25 | 0.25 | 0.25 | 0.25 | 0.5 | 0.25 | 0.25 | 0.125 | 0.25 | < 0.05 | 6.25 | 0.78 | 6.25 | 3.12 | 3.12 | 0.39 | 0.39 | minimal inhibitory concentration (MIC) [14]: 6.25; minimal inhibitory concentration (MIC) [15]: 6.25; minimal inhibitory concentration (MIC) [17]: 3.12; minimal inhibitory concentration (MIC) [18]: 12.5; minimal inhibitory concentration (MIC) [20]: 1.56
